{"source": "patent US20230096602A1", "about": "“TETRAHYDROCYCLOPENTA[B]INDOLE COMPOUNDS FOR TREATMENT OF RENAL DISEASE” (Eirgen Pharma Ltd., priority 2020, published 2023)", "molecules": {"B1": {"name": "PTH: PTH 10 comparator group in the delayed ORX rat model, Table 7 (peptide, UniProt P01270 32-115, looked up)", "Parathyroid hormone": "SVSEIQLMHNLGKHLNSMERVEWLRKKLQDVHNFVALGAPLAPRDAGSQRPRKKEDNVLVESHEKSLGEADKADVNVLTKAKSQ", "modifications": "Parathyroid hormone"}}, "key": {"[1]": {"system": "orchidectomized (ORX) rats", "assay": "Testosterone induced prostate and seminal vesicle growth in delayed ORX rat model", "assay_type": "in vivo", "settings": "for seminal vesicle wet weights Abs(Dif)-LSD / prostate weights Abs(Dif)-LSD: Dunnett", "from_the_text": "(§1) Orchidectomized (ORX) and sham-operated Wistar male rats were used (orchidectomized at 8 weeks of age and allowed to waste for 4 weeks). […] Rats were randomized and placed into treatment groups (n=6) based on body weight. Route of administration for all groups except testosterone enanthate (TE was given sub-cutaneously) was oral. At the end of 2 weeks of daily rats were euthanized, weighed & tissue harvested. Levator ani, prostates, and seminal vesicles were collected from each animal. Results are plotted as means±SE."}, "[2]": {"system": "orchidectomized (ORX) rats", "assay": "Levator ani muscle in delayed ORX rat model", "assay_type": "in vivo", "settings": "for levator ani W/BW Mean: delayed ORX rat", "from_the_text": "Results are plotted as means±SE.\nFollowing the androgen deficiency in the ORX model, the Levator ani- and bulbocavernous muscle weights decreased in size."}, "[3]": {"assay": "Margin of safety (AUC), cat as printed", "assay_type": "in vivo", "settings": "cat (so in the source)"}, "[4]": {"system": "patients with androgen deficiency", "assay": "Clinical studies in patients with androgen deficiency", "assay_type": "in vivo, human", "settings": "any dose level (up to 75 mg doses)", "from_the_text": "The exact effect of this decrease in testosterone levels on androgen related anabolic and prostate effects is not known, but may be dependent on the base levels of testosterone."}, "[5]": {"system": "orchidectomized (ORX) rats", "assay": "Bone effects in osteopenic ORX rat model", "settings": "in vivo"}, "[6]": {"system": "dog prostate", "assay": "Dog toxicology: prostate weight and atrophy", "assay_type": "in vivo"}, "[7]": {"system": "orchidectomized (ORX) rats", "assay": "Prostate and seminal vesicle weight in ORX rat model", "from_the_text": "as §1"}, "[8]": {"system": "healthy subjects", "settings": "healthy volunteers, any time point or dose; data of WO 2016040234; cited from earlier work"}, "[9]": {"system": "healthy subjects", "assay": "Study GPBA QTcF concentration-response analysis", "assay_type": "in vivo, human", "settings": "concentrations found with doses of 250 mg or greater", "description": "At TT701 concentrations found with doses of 250 mg or greater, the mean QTcF prolongation was greater than 10 msec. The risk for clinically significant QT prolongation at doses <250 mg can be excluded."}, "[10]": {"system": "male subjects with LUTS secondary to BPH", "assay": "Study SAR-202 phase 2, 16 weeks", "assay_type": "in vivo, human"}, "[11]": {"system": "clinical study subjects", "assay": "Clinical safety assessment across studies", "assay_type": "in vivo, human", "settings": "phase 2 study"}, "[12]": {"system": "healthy subjects", "assay": "Study GPBC multiple-dose 28 days", "assay_type": "in vivo, human", "settings": "1 mg to 75 mg daily dose for 28 days"}, "[13]": {"assay": "Human PK, single and repeated doses", "assay_type": "in vivo", "from_the_text": "The human pharmacokinetics (PK) of OPK-88004 was investigated following single and repeated doses. Following tmax, OPK-88004 concentrations appear to decline in a biexponential fashion characterized by a short distribution phase and a long terminal phase. Exposure appears to increase approximately dose proportionally in the clinical dosing range. Steady state was achieved within 28 days of dosing. […] These therapeutic benefits of more controlled exposure may result in improved LBM and physical/muscle strength preservation, physical function improvement and muscle wasting prevention. OPK-88004 bioexponential PK profile is important for the optimization of side effect benefit/risk ratio in special populations including dialysis patients."}, "[14]": {"system": "ER, GR, PR MR", "assay": "Binding to other nuclear hormone receptors", "settings": "selectivity"}, "[15]": {"system": "LnCAP cells", "assay": "LnCAP gene expression", "assay_type": "cell-based, human", "settings": "CLUSTERIN"}, "[16]": {"assay": "Margin of safety (AUC), dog", "assay_type": "in vivo"}, "[17]": {"system": "patients with ED who had an incomplete response to tadalafil", "assay": "Study GPEC phase 2, 12 weeks", "assay_type": "in vivo, human", "settings": "for Change in Fat Mass (%) (week 12) / Change in Lean Body Mass (%) (week 12): 5 mg", "from_the_text": "The Phase 2 Study for ED also included exploratory measures for lower extremity muscle strength and power, LBM and fat mass."}, "[18]": {"system": "rat uterus", "assay": "Rat uterine risk", "assay_type": "in vivo"}, "[19]": {"settings": "ORX + TE, 1 mg/kg/d + Example 1, 3 mg/kg/d vs ORX + TE"}, "[20]": {"settings": "ORX + TE, 1 mg/kg/d + Example 1, 10 mg/kg/d vs ORX + TE"}, "[21]": {"settings": "ORX + TE, 1 mg/kg/d + Example 1, 30 mg/kg/d vs ORX + TE"}, "[22]": {"settings": "baseline testosterone <340 ng/dL"}, "[23]": {"settings": "baseline testosterone ≥340 ng/dL"}}, "data": [{"molecule": "CCCCCCC(=O)O[C@H]1CC[C@H]2[C@@H]3CCC4=CC(=O)CC[C@]4(C)[C@H]3CC[C@]12C", "note": "[Testosterone Enanthate, reference compound]", "values": [{"measurement": "prostate weight and seminal vesical weight", "setting": "[1]; orchidectomized rats, 1 mg/k/d alone, 2 weeks", "result": "increase"}]}, {"molecule": "CC(C)OC(=O)N[C@H]1Cc2c(n(Cc3ccccn3)c3ccc(C#N)cc23)C1", "note": "[compound of Formula II, (S)-(7-cyano-4-pyridin-2-ylmethyl-1,2,3,4-tetrahydro-cyclopenta[b]indol-2-yl)-carbamic acid isopropyl ester]", "values": [{"measurement": "levator ani W/BW Mean", "setting": "[2]; 8 weeks, dose 1", "result": 0.2749, "unit": "mg/g"}, {"measurement": "levator ani W/BW Mean", "setting": "[2]; 8 weeks, dose 3", "result": 0.2575, "unit": "mg/g"}, {"measurement": "levator ani W/BW Mean", "setting": "[2]; 8 weeks, dose 10", "result": 0.3237, "unit": "mg/g"}, {"measurement": "levator ani W/BW Mean", "setting": "[2]; 8 weeks, dose 20", "result": 0.325, "unit": "mg/g"}, {"measurement": "Muscle LA ED mg/kg", "setting": "[2]; rat", "result": 3, "unit": "mpk"}, {"measurement": "MOS (AUC)", "setting": "[3]", "result": 71, "unit": "X"}, {"measurement": "PSA", "setting": "[4]", "result": "No increases"}, {"measurement": "Bone Eff (BM)", "setting": "[5]", "result": 2, "unit": "mpk"}, {"measurement": "decreases of prostate weight", "setting": "[6]; dogs, by 3 months (so in the source)", "result": "60-75%"}, {"measurement": "progressive decrease in prostate size", "setting": "[6]; normal dogs, six-month treatment period", "result": 60, "unit": "%"}, {"measurement": "prostate or seminal vesical weights", "setting": "[7]; delayed ORX rats, 2 or 8 weeks, increasing doses up to 20-30 mg/kg", "result": "no effect"}, {"measurement": "changes in the prostate", "setting": "[7]; orchidectomized rats, 30 mg/kg, highest dose examined", "result": "did not induce changes"}, {"measurement": "Rat SV/Prost risk mgs/kg", "setting": "[7]; rat", "result": ">30", "unit": "mpk"}, {"measurement": "prostate specific antigen (PSA) levels, changes from baseline vs placebo", "setting": "[8]", "result": "no significant changes"}, {"measurement": "mean QTcF prolongation", "setting": "[9]", "result": "greater than 10 msec"}, {"measurement": "Change in Fat mass (kg) (week 16)", "setting": "[10]; 15 mg, 16 weeks", "result": -1.47, "unit": "kg"}, {"measurement": "Change in Fat mass (kg) (week 16)", "setting": "[10]; 25 mg, 16 weeks", "result": -1.49, "unit": "kg"}, {"measurement": "Change in Lean Body Mass (kg) (week 16)", "setting": "[10]; 25 mg, 16 weeks, listed as OPK-88008", "result": 1.96, "unit": "kg"}, {"measurement": "Change in Prostate Specific Antigen (week 16 to baseline)", "setting": "[10]; 25 mg, listed as OPK-88008", "result": "−15.44 (p = 0.006)"}, {"measurement": "seminal vesicle wet weights Abs(Dif)-LSD", "setting": "[1]; ORX + Example 1, 10 mg/kg/d (no TE) vs ORX + TE", "result": 1.411}, {"measurement": "prostate weights Abs(Dif)-LSD", "setting": "[1]; [19]", "result": "−0.11"}, {"measurement": "seminal vesicle wet weights Abs(Dif)-LSD", "setting": "[1]; [19]", "result": "−0.34"}, {"measurement": "prostate weights Abs(Dif)-LSD", "setting": "[1]; [20]", "result": 0.036}, {"measurement": "seminal vesicle wet weights Abs(Dif)-LSD", "setting": "[1]; [20]", "result": 0.078}, {"measurement": "prostate weights Abs(Dif)-LSD", "setting": "[1]; [21]", "result": 0.025}, {"measurement": "seminal vesicle wet weights Abs(Dif)-LSD", "setting": "[1]; [21]", "result": 0.536}, {"measurement": "prostate weight and seminal vesical weights normalized to body weight", "setting": "[1]; TE 1 mg/kg/d + 3, 10 and 30 mg/kg/d, 2 weeks, compared to TE alone", "result": "decreasing"}, {"measurement": "transient abnormal AST or ALT level", "setting": "[11]; one subject", "result": "> 3", "unit": "×ULN"}, {"measurement": "transient abnormal AST or ALT level", "setting": "[11]; two subjects", "result": "> 2", "unit": "×ULN"}, {"measurement": "PSA test, effect on the prostate", "setting": "[12]", "result": "neutral to negative effect"}, {"measurement": "Accumulation with multiple dosing", "setting": "[13]; in vivo", "result": "up to 2.5 fold"}, {"measurement": "time to steady state", "setting": "[13]; repeated dosing", "result": "≤ 28", "unit": "days"}, {"measurement": "binding affinity for hAR compared to other nuclear hormone receptors", "setting": "[14]", "result": "> 500", "unit": "fold"}, {"measurement": "EC50", "setting": "[15]", "result": "> 100", "unit": "nM"}, {"measurement": "MOS (AUC)", "setting": "[16]", "result": 28, "unit": "X"}, {"measurement": "Change in Fat Mass (%) (week 12)", "setting": "[17]; [22]", "result": "−1.85", "unit": "%"}, {"measurement": "Change in Lean Body Mass (%) (week 12)", "setting": "[17]; [22]", "result": 1.60, "unit": "%"}, {"measurement": "Change in Fat Mass (%) (week 12)", "setting": "[17]; [23]", "result": "−0.95", "unit": "%"}, {"measurement": "Change in Lean Body Mass (%) (week 12)", "setting": "[17]; [23]", "result": 0.88, "unit": "%"}, {"measurement": "Hematocrit", "setting": "[17]; 12 weeks (FIG. 11)", "result": "no change"}, {"measurement": "Rat uterine risk", "setting": "[18]", "result": 20, "unit": "mpk"}]}, {"molecule": "B1", "values": [{"measurement": "levator ani W/BW Mean", "setting": "[2]; PTH 10 (head: ug/kg/d)", "result": 0.1665, "unit": "mg/g"}]}]}
